In US20080194407A1, “High nitrogen containing chelate compositions suitable for plant delivery” (priority 2007, published 2008):

Tests used:
Golden Delicious apples [1] = test: Golden Delicious apple foliar calcium study: Ca analysis of leaves and fruit; type: in vivo, apple trees; details: 4 foliar applications, 14 day interval; for Apple Ca: apple fruit flesh; for Leaf Ca: apple leaves from fruiting spur
Method: A study was conducted with Golden Delicious apples. Calcium is effective in reducing bitterpit in apples, and the present study was initially designed to determine which source of calcium, described below, had the greatest impact on reducing bitterpit. As a secondary aspect of this study, the leaves and fruit were analyzed to see if the source of calcium could affect calcium retention in the plant tissues.
(§1) A block of mature apple trees was divided into 4 sections.
(§2) The amino acids in the calcium chelate were glycine, valine, leucine, tryptophan, isoleucine, lysine, aspartic acid, alanine, and arginine. All treatments were made on the same day. The applications began with the first cover spray and continued from there every 14 days for 4 applications. The leaves were collected from a fruiting spur located at a 45 degree angle from the spray rig and into the tree canopy 3 feet. Samples were collected and sent for analysis. Apples were also collected on the same day from the same location as the leaves. They also were sent for analysis of the fruit flesh. The orchard was then harvested and placed in storage.

Golden Delicious apples [2] = test: Golden Delicious apple foliar calcium study: bitterpit and culls; type: in vivo, apple trees; details: apples harvested and stored; 4 foliar applications, 14 day interval
Method: A study was conducted with Golden Delicious apples. […] As a secondary aspect of this study, the leaves and fruit were analyzed to see if the source of calcium could affect calcium retention in the plant tissues.
as §1, §2
It is noted that absorption of calcium into the plant from a foliar spray is only part of what the plant needs. The calcium source must be able to be retained by the plant after absorption and then be translocated and enter into metabolic activities as needed.

oranges = test: Orange orchard foliar zinc study: fruit production and quality; type: in vivo, orange trees; details: equivalent zinc
Method: A study was conducted in oranges in which the application of zinc nitrate was compared to a zinc mixed ligand amino acid chelate. The mixed ligands included arginine, lysine, histidine, leucine, tryptophan, aspartic acid, alanine, and glycine. Specifically, a 12 year old orchard containing 193 trees per acre was evaluated. The trees were divided into 2 groups. One group was sprayed with a zinc nitrate treatment, and the other group was sprayed with a zinc mixed ligand amino acid chelate treatment. The treatments were applied by a sprayer that sprays 535 gallons of liquid per acre.
Each tree was sprayed twice during the study, a first time at 90% petal drop and a second time 14 days later. The zinc nitrate was applied at 49 ounces per acre and the amino acid chelate at 66 ounces per acre. The amount of zinc applied to each group was equivalent.
Ten trees from each group were selected at random and the oranges picked from those trees by hand.

corn (maze) plants [3] = test: Greenhouse foliar study in corn: Fe concentration by plasma emission spectrophotometry; type: in vivo; details: 400 ppm Fe foliar spray twice, harvest three weeks after last spray
Method: (§3) A greenhouse foliar study was conducted in which 12 inch corn (maze) plants were sprayed with a solution that contained 400 ppm Fe as FeSO4, Fe EDTA, or Fe high nitrogen amino acid chelate with and without the addition of urea and ammonium nitrate. The high nitrogen amino acids were lysine, histidine, cysteine, tryptophan, aspartic acid, alanine, and glycine. The urea and ammonium nitrate were formulated as an admixture and not reacted to the Fe sources. […] These same treatments were repeated one week later. Three weeks following the last spray, all of the plants were harvested and the roots separated from the stalks. Each sample was dried for 24 hours at 75° C., then weighed for dry matter, and the Fe concentrations determined by plasma emission spectrophotometry.

corn (maze) plants [4] = test: Greenhouse foliar study in corn: plant growth as dry matter; type: in vivo; details: 400 ppm Fe foliar spray twice
Method: as §3, with “spectrophotometry. […] Greater Fe retention also results in greater plant growth as measured by dry matter.” for “spectrophotometry.”

[5] = 0 ppm N from urea and ammonium nitrate
[6] = 500 ppm N from urea and ammonium nitrate
[7] = 1000 ppm N urea and ammonium nitrate

## [O]=[Ca] [Ca Oxide, calcium oxide]
Golden Delicious apples [1]
  Apple Ca: 148 ppm
  Leaf Ca: 2.15%
Golden Delicious apples [2]
  percent of bitterpit in the culls: 25%
  percent of culls: 34%

## O=[N+]([O-])[O-].O=[N+]([O-])[O-].[Zn+2] [Zn Nitrate, zinc nitrate]
oranges; oranges, sprayed twice
  % Acid: 1.05%
  % Brix: 12.2%
  % Juice: 57.2%
oranges; sprayed twice (90% petal drop and 14 days later), ten trees per group
  Weight of oranges/tree: 95.11 lbs

## [Ca+2].[Cl-].[Cl-] [Ca Chloride, calcium chloride]
Golden Delicious apples [1]
  Apple Ca: 138 ppm
  Leaf Ca: 1.70%
Golden Delicious apples [2]
  percent of bitterpit in the culls: 26%
  percent of culls: 36%

## O=[N+]([O-])[O-].O=[N+]([O-])[O-].[Ca+2] [Ca Nitrate, calcium nitrate]
Golden Delicious apples [1]
  Apple Ca: 190 ppm
  Leaf Ca: 2.37%
Golden Delicious apples [2]
  percent of bitterpit in the culls: 20%
  percent of culls: 34%

## O=C([O-])CN(CCN(CC(=O)[O-])CC(=O)[O-])CC(=O)[O-].[Fe+3] [Fe EDTA]
Corn (maze) plants [3]; [5]
  Fe in Leaves: 47 ppm^a Fe ppm Fe
Corn (maze) plants [3]; [6]
  Fe in Leaves: 56 ppm^a Fe ppm Fe
Corn (maze) plants [3]; [7]
  Fe in Leaves: 69 ppm^a Fe ppm Fe
Corn (maze) plants [4]; [5]
  Dry Matter: 14.12 g/pot
Corn (maze) plants [4]; [6]
  Dry Matter: 15.08 g/pot
Corn (maze) plants [4]; [7]
  Dry Matter: 11.24 g/pot

## O=S(=O)([O-])[O-].[Fe+2] [FeSO4]
Corn (maze) plants [3]; [5]
  Fe in Leaves: 48 ppm^a Fe ppm Fe
Corn (maze) plants [3]; [6]
  Fe in Leaves: 53 ppm^a Fe ppm Fe
Corn (maze) plants [3]; [7]
  Fe in Leaves: 63 ppm^a Fe ppm Fe
Corn (maze) plants [4]; [5]
  Dry Matter: 13.23 g/pot
Corn (maze) plants [4]; [6]
  Dry Matter: 15.73 g/pot
Corn (maze) plants [4]; [7]
  Dry Matter: 14.82 g/pot
